Laboratory results reported in the supplement of paper PMC10307832.

Tests used:
Assay in all cases: relative viability (nuclei count vs DMSO), 5 days (fraction); higher = more cells survive
HARA = test system: HARA
Procedure, shortened: (§1)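 After 5 days of treatment, lung cancer cells in 1536-well plates were fixed and stained in a single step (final 0.05% Triton X-100, 1% formaldehyde, 1 ug/ml Hoechst) and their nuclei counted on 4× images. Treatment had been applied by pin tool the day after seeding as one drug alone or as a fixed anchor-drug dose with five library-drug doses (not always all listed) in √10 steps. Relative viability is the nuclei count of treated wells divided by that of vehicle wells, and values are medians of duplicate plates.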

NCI-H1975 = test system: NCI-H1975
Procedure, shortened: as §1

NCI-H1792 = test system: NCI-H1792
Procedure, shortened: as §1

NCI-H1437 = test system: NCI-H1437
Procedure, shortened: as §1

SW 900 = test system: SW 900
Procedure, shortened: as §1

NCI-H596 = test system: NCI-H596
Procedure, shortened: as §1

HCC-44 = test system: HCC-44
Procedure, shortened: as §1

NCI-H838 = test system: NCI-H838
Procedure, shortened: as §1

NCI-H650 = test system: NCI-H650
Procedure, shortened: as §1

NCI-H522 = test system: NCI-H522
Procedure, shortened: as §1

A-427 = test system: A-427
Procedure, shortened: as §1

NCI-H1666 = test system: NCI-H1666
Procedure, shortened: as §1

LCLC-103H = test system: LCLC-103H
Procedure, shortened: as §1

EKVX = test system: EKVX
Procedure, shortened: as §1

NCI-H23 = test system: NCI-H23
Procedure, shortened: as §1

NCI-H441 = test system: NCI-H441
Procedure, shortened: as §1

201T = test system: 201T
Procedure, shortened: as §1

HCC-15 = test system: HCC-15
Procedure, shortened: as §1

LK-2 = test system: LK-2
Procedure, shortened: as §1

HCC-827 = test system: HCC-827
Procedure, shortened: as §1

SMILES: C[C@@H]1CN(CC(=O)Nc2ccc3c(c2)Cc2cccc(-c4cc(=O)cc(N5CCOCC5)o4)c2S3)C[C@H](C)O1 + NC(=O)Nc1cc(-c2cccc(F)c2)sc1C(=O)N[C@H]1CCCNC1 [AZD7762] (partner 0.2 µM)
- relative viability (HARA; first compound 0.04 µM): 0.296
- relative viability (HARA; first compound 0.1265 µM): 0.259
- relative viability (HARA; first compound 0.4 µM): 0.227
- relative viability (HARA; first compound 4 µM): 0.329
- relative viability (NCI-H1975; first compound 0.04 µM): 0.729
- relative viability (NCI-H1975; first compound 0.1265 µM): 0.608
- relative viability (NCI-H1975; first compound 0.4 µM): 0.624
- relative viability (NCI-H1975; first compound 4 µM): 0.585
- relative viability (NCI-H1792; first compound 0.04 µM): 0.662
- relative viability (NCI-H1792; first compound 0.1265 µM): 0.638
- relative viability (NCI-H1792; first compound 0.4 µM): 0.564
- relative viability (NCI-H1792; first compound 4 µM): 0.314
- relative viability (NCI-H1437; first compound 0.04 µM): 1.08
- relative viability (NCI-H1437; first compound 0.1265 µM): 1.09
- relative viability (NCI-H1437; first compound 0.4 µM): 1.12
- relative viability (NCI-H1437; first compound 4 µM): 0.95
- relative viability (SW 900; first compound 0.04 µM): 0.629
- relative viability (SW 900; first compound 0.1265 µM): 0.669
- relative viability (SW 900; first compound 0.4 µM): 0.506
- relative viability (SW 900; first compound 4 µM): 0.281
- relative viability (NCI-H596; first compound 0.04 µM): 1.12
- relative viability (NCI-H596; first compound 0.1265 µM): 1.1
- relative viability (NCI-H596; first compound 0.4 µM): 1.1
- relative viability (NCI-H596; first compound 4 µM): 1.06
- relative viability (HCC-44; first compound 0.04 µM): 0.945
- relative viability (HCC-44; first compound 0.1265 µM): 1.01
- relative viability (HCC-44; first compound 0.4 µM): 1
- relative viability (HCC-44; first compound 4 µM): 0.913
- relative viability (NCI-H838; first compound 0.04 µM): 0.802
- relative viability (NCI-H838; first compound 0.1265 µM): 0.909
- relative viability (NCI-H838; first compound 0.4 µM): 0.992
- relative viability (NCI-H838; first compound 4 µM): 0.861
- relative viability (NCI-H650; first compound 0.04 µM): 0.981
- relative viability (NCI-H650; first compound 0.1265 µM): 0.853
- relative viability (NCI-H650; first compound 0.4 µM): 1.21
- relative viability (NCI-H650; first compound 4 µM): 0.895
- relative viability (NCI-H522; first compound 0.04 µM): 0.526
- relative viability (NCI-H522; first compound 0.1265 µM): 0.743
- relative viability (NCI-H522; first compound 0.4 µM): 0.908
- relative viability (NCI-H522; first compound 4 µM): 0.814
- relative viability (A-427; first compound 0.04 µM): 0.855
- relative viability (A-427; first compound 0.1265 µM): 0.831
- relative viability (A-427; first compound 0.4 µM): 0.73
- relative viability (A-427; first compound 4 µM): 0.635
- relative viability (NCI-H1666; first compound 0.04 µM): 0.891
- relative viability (NCI-H1666; first compound 0.1265 µM): 0.891
- relative viability (NCI-H1666; first compound 0.4 µM): 0.941
- relative viability (NCI-H1666; first compound 4 µM): 0.765
- relative viability (LCLC-103H; first compound 0.04 µM): 0.798
- relative viability (LCLC-103H; first compound 0.1265 µM): 0.755
- relative viability (LCLC-103H; first compound 0.4 µM): 0.761
- relative viability (LCLC-103H; first compound 4 µM): 0.631
- relative viability (EKVX; first compound 0.04 µM): 0.651
- relative viability (EKVX; first compound 0.1265 µM): 0.751
- relative viability (EKVX; first compound 0.4 µM): 0.713
- relative viability (EKVX; first compound 4 µM): 0.562
- relative viability (NCI-H23; first compound 0.04 µM): 0.238
- relative viability (NCI-H23; first compound 0.1265 µM): 0.22
- relative viability (NCI-H23; first compound 0.4 µM): 0.226
- relative viability (NCI-H23; first compound 4 µM): 0.18
- relative viability (NCI-H441; first compound 0.04 µM): 1.28
- relative viability (NCI-H441; first compound 0.1265 µM): 1.16
- relative viability (NCI-H441; first compound 0.4 µM): 1.02
- relative viability (NCI-H441; first compound 4 µM): 1.01
- relative viability (201T; first compound 0.04 µM): 0.5
- relative viability (201T; first compound 0.1265 µM): 0.544
- relative viability (201T; first compound 0.4 µM): 0.586
- relative viability (201T; first compound 4 µM): 0.478
- relative viability (HCC-15; first compound 0.04 µM): 1.18
- relative viability (HCC-15; first compound 0.1265 µM): 1.06
- relative viability (HCC-15; first compound 0.4 µM): 1.37
- relative viability (HCC-15; first compound 4 µM): 1.05
- relative viability (LK-2; first compound 0.04 µM): 0.331
- relative viability (LK-2; first compound 0.1265 µM): 0.363
- relative viability (LK-2; first compound 0.4 µM): 0.293
- relative viability (LK-2; first compound 4 µM): 0.432
- relative viability (HCC-827; first compound 0.04 µM): 0.205
- relative viability (HCC-827; first compound 0.1265 µM): 0.188
- relative viability (HCC-827; first compound 0.4 µM): 0.201
- relative viability (HCC-827; first compound 4 µM): 0.161
